According to ChEMBL document CHEMBL1201862, “PubChem BioAssay data set” (2004):
The source made the active and inactive calls.

How the values were obtained:
[1] = HepG2 cell cytotoxicity, dose response, cytotoxicity control for non-replicating M. tuberculosis project (AID 489018); assay type: functional; conditions: Mycobacterium tuberculosis
[2] = molecular target: Sphingosine 1-phosphate receptor 1 (Homo sapiens, UniProt P21453); assay type: functional;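 further: Tango beta-arrestin reporter U2OS cells stimulated with S1P near its EC80; inhibitor potency meaning antagonism of receptor activation by the natural agonist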
Sphingosine 1-phosphate receptor 1, sequence (P21453 whole entry): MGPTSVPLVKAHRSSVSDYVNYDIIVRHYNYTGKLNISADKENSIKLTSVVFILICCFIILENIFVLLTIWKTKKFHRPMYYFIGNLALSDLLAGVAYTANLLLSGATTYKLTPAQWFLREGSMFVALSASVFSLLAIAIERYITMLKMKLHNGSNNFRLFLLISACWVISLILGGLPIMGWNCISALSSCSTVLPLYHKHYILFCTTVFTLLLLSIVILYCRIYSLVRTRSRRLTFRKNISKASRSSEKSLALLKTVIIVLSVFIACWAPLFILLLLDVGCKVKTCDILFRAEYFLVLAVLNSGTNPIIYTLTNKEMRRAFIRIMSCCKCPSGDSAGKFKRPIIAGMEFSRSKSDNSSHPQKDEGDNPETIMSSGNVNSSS

H4 = experiment: Luminescence Cell-Based Dose Response HTS to Identify Activators of 5'UTR Stem-Loop Driven Prion Protein mRNA Translation in H4 Neuroglioblastoma Cells. [Related pubchem assays: 1829 (Project Summary), 1814 (Primary HTS)]; assay type: functional; conditions: Homo sapiens
cells = assay type: functional
[3] = molecular target: T1, Sphingosine 1-phosphate receptor 4 (Homo sapiens, UniProt O95977); experiment: Late stage fluorescence dose response cell-based screening assay for antagonists of the Sphingosine 1-Phosphate Receptor 4 (S1P4). [Related pubchem assays: 1524 (Confirmation screen (S1P4 antagonists).), 1510 (Primary screen (S1P4 antagonists).), 1853 (Summary AID (S1P4 antagonists).), 1692 (Dose response screen (S1P4 antagonists).)]; assay type: functional
T1 sequence (O95977 whole entry): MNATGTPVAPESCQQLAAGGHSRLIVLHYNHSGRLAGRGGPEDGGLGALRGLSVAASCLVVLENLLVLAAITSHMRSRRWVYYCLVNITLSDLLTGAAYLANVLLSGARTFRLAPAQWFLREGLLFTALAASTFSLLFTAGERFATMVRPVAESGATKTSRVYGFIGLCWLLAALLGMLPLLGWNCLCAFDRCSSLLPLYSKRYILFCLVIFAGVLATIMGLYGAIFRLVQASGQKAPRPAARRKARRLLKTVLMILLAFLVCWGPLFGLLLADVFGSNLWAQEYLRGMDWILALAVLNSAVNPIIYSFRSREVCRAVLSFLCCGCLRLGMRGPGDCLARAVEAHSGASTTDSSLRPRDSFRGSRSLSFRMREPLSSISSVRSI

[4] = molecular target: Bifunctional protein GlmU (Mycobacterium tuberculosis, UniProt P9WMN3); experiment: Inhibitors of Mycobacterial Glucosamine-1-phosphate acetyl transferase (GlmU). Secondary screen.; parameters: species or system Mycobacterium tuberculosis H37Rv
Bifunctional protein GlmU, sequence (P9WMN3 whole entry): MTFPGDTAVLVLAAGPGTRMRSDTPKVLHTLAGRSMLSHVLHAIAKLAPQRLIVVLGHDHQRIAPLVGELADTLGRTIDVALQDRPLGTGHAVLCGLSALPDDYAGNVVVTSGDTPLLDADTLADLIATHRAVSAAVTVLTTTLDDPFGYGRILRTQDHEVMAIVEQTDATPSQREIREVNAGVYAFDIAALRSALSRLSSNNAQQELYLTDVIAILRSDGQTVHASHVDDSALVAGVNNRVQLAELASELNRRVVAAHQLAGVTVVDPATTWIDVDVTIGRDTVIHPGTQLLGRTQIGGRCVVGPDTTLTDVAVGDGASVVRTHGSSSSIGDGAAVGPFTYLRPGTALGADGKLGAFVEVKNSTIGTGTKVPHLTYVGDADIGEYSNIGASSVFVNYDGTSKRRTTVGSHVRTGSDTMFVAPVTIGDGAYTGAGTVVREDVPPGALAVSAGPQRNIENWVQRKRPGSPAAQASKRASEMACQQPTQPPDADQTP

Beta Lactamase = Beta Lactamase (Pseudomonas aeruginosa, UniProt Q932Y6); experiment: BLA reporter interference, concentration series – BLA reporter cells, FRET fluorescence, artefact control for TLR9-MyD88 binding inhibitor project, dose response (AID 588341); assay type: cell-based;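 further: cell based assay in CHO-K1 cells stably expressing beta-lactamase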
Beta Lactamase, sequence (Q932Y6 whole entry): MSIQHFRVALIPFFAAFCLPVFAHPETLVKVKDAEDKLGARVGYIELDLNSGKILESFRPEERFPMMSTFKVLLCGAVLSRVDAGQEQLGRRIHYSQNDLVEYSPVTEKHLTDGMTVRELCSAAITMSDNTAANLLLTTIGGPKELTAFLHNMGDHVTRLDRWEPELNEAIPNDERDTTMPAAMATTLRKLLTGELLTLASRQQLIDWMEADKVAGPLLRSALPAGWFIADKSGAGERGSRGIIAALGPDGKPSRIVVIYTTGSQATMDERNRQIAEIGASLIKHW

[5] = molecular target: T2, Heat shock factor protein 1 (Mus musculus, UniProt P38532); experiment: decrease of HSF1-responsive luciferase luminescence – cell-based, NIH3T3, dose retest, confirmation (AID 2382); assay type: functional;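 further: NIH3T3 fibroblasts with HSF1-driven luciferase reporter stressed by proteasome inhibitor MG132; luminescence from HSF1-driven luciferase expression after 8 hours of MG132 stress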
T2 sequence (P38532 whole entry): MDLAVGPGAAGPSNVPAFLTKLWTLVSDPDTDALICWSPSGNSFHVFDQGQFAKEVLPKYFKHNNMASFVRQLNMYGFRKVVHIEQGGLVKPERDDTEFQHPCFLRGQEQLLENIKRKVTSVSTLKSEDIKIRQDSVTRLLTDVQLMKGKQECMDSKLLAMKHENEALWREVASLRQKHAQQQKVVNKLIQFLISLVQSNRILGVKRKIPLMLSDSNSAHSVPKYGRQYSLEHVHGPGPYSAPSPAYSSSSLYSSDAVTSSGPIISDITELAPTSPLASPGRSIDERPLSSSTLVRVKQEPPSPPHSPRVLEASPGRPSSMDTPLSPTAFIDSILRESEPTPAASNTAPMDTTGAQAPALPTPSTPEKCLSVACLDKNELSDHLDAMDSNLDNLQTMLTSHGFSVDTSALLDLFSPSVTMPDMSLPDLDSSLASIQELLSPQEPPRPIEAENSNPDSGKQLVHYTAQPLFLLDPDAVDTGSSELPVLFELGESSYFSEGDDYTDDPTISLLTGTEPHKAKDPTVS

SUMO-activating enzyme = SUMO-activating enzyme (Homo sapiens, UniProt Q9UBT2); experiment: blockers of SAE1/SAE2–UBC9 SUMO transfer – biochemical, HTRF, uHTS, primary screen (AID 2006); assay type: protein-complex assay
SUMO-activating enzyme, sequence (Q9UBE0 whole entry): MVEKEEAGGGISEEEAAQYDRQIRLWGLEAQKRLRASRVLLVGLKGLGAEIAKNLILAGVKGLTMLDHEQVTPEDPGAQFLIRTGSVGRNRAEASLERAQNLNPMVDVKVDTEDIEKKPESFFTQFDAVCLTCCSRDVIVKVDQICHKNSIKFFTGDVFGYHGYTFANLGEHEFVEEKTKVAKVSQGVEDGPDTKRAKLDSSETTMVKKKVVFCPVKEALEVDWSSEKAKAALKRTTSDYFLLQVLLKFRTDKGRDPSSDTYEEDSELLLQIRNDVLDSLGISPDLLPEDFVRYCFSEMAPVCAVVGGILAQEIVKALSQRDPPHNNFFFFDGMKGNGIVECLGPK
SUMO-activating enzyme, sequence (Q9UBT2 whole entry): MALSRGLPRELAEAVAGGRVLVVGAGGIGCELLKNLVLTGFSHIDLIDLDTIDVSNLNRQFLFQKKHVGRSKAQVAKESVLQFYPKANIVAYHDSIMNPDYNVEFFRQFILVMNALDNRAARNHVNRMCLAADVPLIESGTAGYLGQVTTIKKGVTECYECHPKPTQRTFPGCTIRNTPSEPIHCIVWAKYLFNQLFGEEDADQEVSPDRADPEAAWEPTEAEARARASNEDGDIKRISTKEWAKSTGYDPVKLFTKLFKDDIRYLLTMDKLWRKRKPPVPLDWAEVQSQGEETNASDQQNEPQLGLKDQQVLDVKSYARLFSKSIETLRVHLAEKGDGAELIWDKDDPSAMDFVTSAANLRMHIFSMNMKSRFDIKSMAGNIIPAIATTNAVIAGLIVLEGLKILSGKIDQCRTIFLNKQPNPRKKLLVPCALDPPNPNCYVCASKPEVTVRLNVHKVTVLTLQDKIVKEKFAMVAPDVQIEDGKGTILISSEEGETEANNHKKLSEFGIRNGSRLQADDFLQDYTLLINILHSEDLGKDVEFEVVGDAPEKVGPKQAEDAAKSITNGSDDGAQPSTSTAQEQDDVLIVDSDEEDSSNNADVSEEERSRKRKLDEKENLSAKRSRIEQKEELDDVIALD

Structure (SMILES): O=C(Nc1ccccc1)c1nnsc1[S+]([O-])c1ccc(Cl)cc1 (centres undefined)
- CC50 [1]: 19.1 µM (active)
- IC50 [2]: > 49.8 µM (not active)
- EC50 (H4): 24 µM (active)
- IC50 (cells): 13.1 µM (active)
- IC50 [3]: 12 µM (not active)
- IC50 [4]: 197 µM (active)
- IC50 (Beta Lactamase): 11.9 µM (inactive)

Structure (SMILES): CC1OC(Nc2cccc3ccccc23)C(O)C(O)C1O (centres undefined)
- EC50 [5]: > 195 µM (not active)

Structure (SMILES): O=C1C=C(Nc2ccccc2)c2ccccc2C1=O
- IC50 (SUMO-activating enzyme): 20.7 µM (active)
